Laboratory results as given in patent publication US9695154B2, “Heteroaryl inhibitors of sumo activating enzyme” (MILLENNIUM PHARMACEUTICALS, INC., priority 2013, dated 2017).

Biological target: T1, recombinant human SAE enzyme (Homo sapiens, UniProt Q9UBT2)
T1 sequence (Q9UBT2 1-640): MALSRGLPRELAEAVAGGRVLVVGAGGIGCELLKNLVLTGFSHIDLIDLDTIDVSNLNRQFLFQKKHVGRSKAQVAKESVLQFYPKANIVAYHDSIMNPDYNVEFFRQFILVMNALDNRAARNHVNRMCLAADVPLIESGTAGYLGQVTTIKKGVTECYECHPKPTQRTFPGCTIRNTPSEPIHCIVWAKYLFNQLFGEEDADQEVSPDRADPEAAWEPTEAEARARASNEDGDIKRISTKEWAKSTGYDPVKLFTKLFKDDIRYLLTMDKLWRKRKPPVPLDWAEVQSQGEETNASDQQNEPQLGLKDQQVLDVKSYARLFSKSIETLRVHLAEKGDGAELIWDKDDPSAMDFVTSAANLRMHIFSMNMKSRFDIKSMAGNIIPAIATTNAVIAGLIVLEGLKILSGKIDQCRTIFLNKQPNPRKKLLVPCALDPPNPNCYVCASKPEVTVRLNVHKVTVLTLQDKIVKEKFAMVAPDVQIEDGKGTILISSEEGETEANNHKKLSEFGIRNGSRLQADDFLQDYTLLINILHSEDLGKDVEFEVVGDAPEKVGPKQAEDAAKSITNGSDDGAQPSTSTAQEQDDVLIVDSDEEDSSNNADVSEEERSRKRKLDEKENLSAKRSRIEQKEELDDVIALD
T1 sequence (Q9UBE0 1-346 partner): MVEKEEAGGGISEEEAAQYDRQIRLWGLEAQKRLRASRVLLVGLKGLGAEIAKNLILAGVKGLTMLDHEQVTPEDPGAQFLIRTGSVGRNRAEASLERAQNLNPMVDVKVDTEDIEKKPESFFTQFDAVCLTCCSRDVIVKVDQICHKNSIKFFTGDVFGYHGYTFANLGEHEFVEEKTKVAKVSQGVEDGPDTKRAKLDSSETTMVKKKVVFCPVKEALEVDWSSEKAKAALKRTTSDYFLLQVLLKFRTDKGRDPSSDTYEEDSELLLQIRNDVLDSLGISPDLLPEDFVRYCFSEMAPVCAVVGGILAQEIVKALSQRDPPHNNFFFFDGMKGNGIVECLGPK
Experiment: SAE HTRF Enzyme Assay
Type: biochemical
Conditions: for IC50: class symbols A-C; for inhibition at 0.111 µM: compound concentration 0.111 μM, read-out: Percent Inhibition
How it was run: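 SAE 0.11 nM; ATP 0.5 μM; Sumo-Flag 0.125 μM; Ubc9-GST 0.01 μM; 250 μM GSH, 5 mM MgCl2, pH 7.5. 105 min, 24° C. EDTA/KF stop plus Eu/APC antibodies, 2 h, TR-FRET. % inhibition or IC50.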

Row | SMILES | IC50 [nM] | inhibition at 0.111 µM [%]
1 | NS(=O)(=O)OC[C@H]1C[C@@H](Nc2ncncc2C(=O)c2ccn(Cc3cccc(C4(O)COC4)n3)n2)C[C@@H]1O [Compound I-120, [(1R,2S,4R)-2-hydroxy-4-({5-[(1-{[6-(3-hydroxyoxetan-3-yl)pyridin-2-yl]methyl) 1H pyrazol-3-yl)carbonyl]pyrimidin-4-yl}amino)cyclopentyl]methyl sulfamate] | 100 to 1000 | 47
2 | NS(=O)(=O)OC[C@H]1C[C@@H](Nc2ncncc2C(=O)c2ccn(Cc3ccc(F)cc3C(F)(F)F)n2)[C@H](O)[C@@H]1O [Compound I-121, [(1R,2R,3S,4R)-4-{[5-({1-[4-fluoro-2-(trifluoromethyl)benzyl]-1H-pyrazol-3-yl}carbonyl)pyrimidin-4-yl]amino}-2,3-dihydroxycyclopentyl]methyl sulfamate] | < 10 | 94
3 | NS(=O)(=O)OC[C@H]1C[C@@H](Nc2ncncc2C(=O)c2ccn(Cc3ccc(F)c(Cl)c3)n2)[C@@H](F)[C@@H]1O [Compound I-122, {(1R,2R,3R,4R)-4-[(5-{[1-(3-chloro-4-fluorobenzyl)-1H-pyrazol-3-yl]carbonyl}pyrimidin-4-yl)amino]-3-fluoro-2-hydroxycyclopentyl}methyl sulfamate] | < 10 | 99
4 | NS(=O)(=O)OC[C@H]1C[C@@H](Nc2ncncc2C(=O)c2ccn(Cc3cccc(F)c3)n2)[C@H](O)[C@@H]1O [Compound I-123, {(1R,2R,3S,4R)-4-[(5-{[1-(3-fluorobenzyl)-1H-pyrazol-3-yl]carbonyl}pyrimidin-4-yl)amino]-2,3-dihydroxycyclopentyl}methyl sulfamate] | < 10 | 100
5 | NS(=O)(=O)OC[C@H]1C[C@@H](Nc2ccncc2C(=O)c2ccn(Cc3cccc(Cl)c3)c2)[C@@H](F)[C@@H]1O [Compound I-124, {(1R,2R,3R,4R)-4-[(3-{[1-(3-chlorobenzyl)-1H-pyrrol-3-yl]carbonyl}pyridin-4-yl)amino]-3-fluoro-2-hydroxycyclopentyl}methyl sulfamate] | < 10 | 97
6 | NS(=O)(=O)OC[C@H]1C[C@@H](Nc2ncncc2C(=O)c2ccn(CC(=O)c3ccccc3)n2)[C@H](O)[C@@H]1O [Compound I-125, {(1R,2R,3S,4R)-2,3-Dihydroxy-4-[(5-{([1-(2-oxo-2-phenylethyl)-1H-pyrazol-3-yl]carbonyl}pyrimidin-4-yl)amino]cyclopentyl}methyl sulfamate] | < 10 | 99
7 | NS(=O)(=O)OC[C@H]1C[C@@H](Nc2ncncc2C(=O)c2ccn(Cc3ccc(Cl)c(SC(F)(F)F)c3)n2)[C@H](O)[C@@H]1O [Compound I-126, [(1R,2R,3S,4R)-4-({5-[(1-{4-chloro-3-[(trifluoromethyl)sulfanyl]benzyl}-1H-pyrazol-3-yl)carbonyl]pyrimidin-4-yl}amino)-2,3-dihydroxycyclopentyl]methyl sultamate] | < 10 | > 99
8 | NS(=O)(=O)OC[C@H]1C[C@@H](Nc2ncncc2C(=O)c2ccn(Cc3ccc(Cl)c(Br)c3)n2)[C@@H](F)[C@@H]1O [Compound I-127, {(1R,2R,3R,4R)-4-[(5-{[1-(3-bromo-4-chlorobenzyl)-1H-pyrazol-3-yl]carbonyl}pyrimidin-4-yl)amino]-3-fluoro-2-hydroxycyclopentyl}methyl sulfamate] | < 10 | 99
9 | Cc1cccc(Cn2ccc(C(=O)c3cncnc3N[C@@H]3C[C@H](COS(N)(=O)=O)[C@@H](O)C3)n2)c1 [Compound I-128, {(1R,2S,4R)-2-hydroxy-4-[(5-{[1-(3-methylbenzyl)-1H-pyrazol-3-yl]carbonyl}pyrimidin-4-yl)amino]cyclopentyl}methyl sulfamate] | < 10 | 98
10 | NS(=O)(=O)OC[C@H]1C[C@@H](Nc2ncncc2C(=O)c2ccn(Cc3cccc(C(F)(F)F)c3)c2)C[C@@H]1O [Compound I-129, [(1R,2S,4R)-2-hydroxy-4-{[5-({1-[3-(trifluoromethyl)benzyl]-1H-pyrrol-3-yl}carbonyl)pyrimidin-4-yl]amino}cyclopentyl]methyl sulfamate] | < 10 | 99
11 | NS(=O)(=O)OC[C@H]1C[C@@H](Nc2ncncc2C(=O)c2ccn(Cc3ccc(C(F)(F)F)o3)n2)[C@H](O)[C@@H]1O [Compound I-130, [(1R,2R,3S,4R)-2,3-dihydroxy-4-({5-[(1-{[5-(trifluoromethyl)-2-furyl]methyl}-1H-pyrazol-3-yl)carbonyl]pyrimidin-4-yl}amino)cyclopentyl]methyl sulfamate] | < 10 | 98
12 | NS(=O)(=O)OC[C@H]1C[C@@H](Nc2ncncc2C(=O)c2ccn(Cc3cccc(OC(F)(F)F)c3)c2)[C@@H](F)[C@@H]1O [Compound I-131, [(1R,2R,3R,4R)-3-Fluoro-2-hydroxy-4-{[5-({1-[3-(trifluoromethoxy)benzyl]-1H-pyrrol-3-yl}carbonyl)pyrimidin-4-yl]amino}cyclopentyl]methyl sulfamate] | < 10 | 96
13 | NS(=O)(=O)OC[C@H]1C[C@@H](Nc2ccncc2C(=O)c2ccn(Cc3cccc(OC(F)(F)F)c3)c2)[C@@H](F)[C@@H]1O [Compound I-132, [(1R,2R,3R,4R)-3-Fluoro-2-hydroxy-4-{[3-({1-[3-(trifluoromethoxy)benzyl]-1H-pyrrol-3-yl}carbonyl)pyridin-4-yl]amino}cyclopentyl]methyl sulfamate] | 10 to 100 | 78
14 | NS(=O)(=O)OC[C@H]1C[C@@H](Nc2ncncc2C(=O)c2ccn(Cc3ccc(F)c(OC(F)(F)F)c3)n2)[C@H](O)[C@@H]1O [Compound I-134, [(1R,2R,3S,4R)-4-{[5-({1-[4-fluoro-3-(trifluoromethoxy)benzyl]-1H-pyrazol-3-yl}carbonyl)pyrimidin-4-yl]amino}-2,3-dihydroxycyclopentyl]methyl sulfamate] | < 10 | 98
15 | NS(=O)(=O)OC[C@H]1C[C@@H](Nc2ncncc2C(=O)c2ccn(Cc3ccccc3)n2)[C@@H](O)[C@@H]1O [Compound I-135, [(1R,2R,3R,4R)-4-({5-[(1-Benzyl-1H-pyrazol-3-yl)carbonyl]pyrimidin-4-yl}amino)-2,3-dihydroxycyclopentyl]methyl sulfamate] | 10 to 100 | 81
16 | NS(=O)(=O)NC[C@H]1C[C@@H](Nc2ncncc2C(=O)c2ccn(Cc3cccc(Cl)c3)n2)[C@H](O)[C@@H]1O [Compound I-136, N-({(1R,2R,3S,4R)-4-[(5-{[1-(3-Chlorobenzyl)-1H-pyrazol-3-yl]carbonyl}pyrimidin-4-yl)amino]-2,3-dihydroxycyclopentyl}methyl)sulfuric diamide] | 10 to 100 | 88
17 | C[Si](C)(C)c1cccc(Cn2ccc(C(=O)c3cncnc3N[C@@H]3C[C@H](COS(N)(=O)=O)[C@@H](O)C3)n2)c1 [Compound I-137, [(1R,2S,4R)-2-hydroxy-4-{[5-({1-[3-(trimethylsilyl)benzyl]-1H-pyrazol-3-yl}carbonyl)pyrimidin-4-yl]amino}cyclopentyl]methyl sulfamate] | 10 to 100 | 78
